Test results taken from BigSolDB 2.1.

CC(S)C(=O)NCC(=O)O (stereo not given)
solubility (mole fraction)
Details | 273.15 K | 278.15 K | 283.15 K | 288.15 K | 293.15 K | 298.15 K | 303.15 K | 308.15 K | 313.15 K | 318.15 K
in acetonitrile | 0.00946 | 0.0105 | 0.0115 | 0.0126 | 0.0138 | 0.0151 | 0.0165 | 0.018 | 0.0196 | 0.0212
in isobutanol | 0.0119 | 0.0141 | 0.0166 | 0.0191 | 0.0217 | 0.0247 | 0.0281 | 0.0321 | 0.0365 | 0.0413
in n-butanol | 0.0251 | 0.0311 | 0.0379 | 0.0451 | 0.0529 | 0.0614 | 0.0709 | 0.0811 | 0.0918 | 0.103
in toluene | 0.00033 | 0.00037 | 0.00041 | 0.00045 | 0.0005 | 0.00056 | 0.00062 | 0.00069 | 0.00077 | 0.00087
